This is an account of results in PMC10821118, “Gallium-68-Labeled KISS1-54 Peptide for Mapping KISS1 Receptor via PET: Initial Evaluation in Human Tumor Cell Lines and in Tumor-Bearing Mice” (Pharmaceuticals, 2023).

Ends that are not written are not given here. Some results are limits rather than exact numbers.

What is called tissue uptake is the share of the injected amount in each gram of the tissue. By Ki is commonly meant the dissociation constant of the complex between target and ligand, obtained from inhibition or displacement.

The subject of one series is KISS1R in HCT116 cells. Description: KISS1R expression by immunofluorescence after Decitabine pre-incubation. The format is cell-based, human. The following applies: HCT116 pre-incubated 72 h with 5 µM Decitabine versus untreated. As for the experimental part:
Cells were seeded in 24-well plates on microscope cover glasses (VWR, Ismaning, Germany). After fixation/permeabilization, cells were incubated overnight with anti-KISS1R antibody (abcam, Berlin, Germany) or without primary antibody (negative control) and then stained with Alexa-Fluor®-488 conjugated secondary antibody (abcam, Berlin, Germany). The nucleus was counterstained with 4′,6-Diamidin-2-phenylindol (DAPI) (Sigma-Aldrich, Deisenhofen, Germany). Fluorescence images were taken on an Axio Scope.A1 fluorescence microscope equipped with a camera and the ZEN2 (blue edition)-Software, version 2.0.0.0 (Zeiss, Jena, Germany). Fluorescence canals were merged using the software FIJI (Image J, version 1.53t).
Cells were seeded in 24-well plates, and 1 h before [^68Ga]KISS1-54 uptake, the cell culture medium was replaced by PBS/5% BSA. Cells were incubated at 37 °C with [^68Ga]KISS1-54 for 5–90 min or co-incubated for 60 min with [^68Ga]KISS1-54 and KISS1-54 (Sigma Aldrich, Deisenhofen, Germany). After incubation, cells were washed three times with ice-cold PBS/5% BSA and harvested. Radioactivity was measured with a gamma-counter (Wizard 2480, Perkin-Elmer, Rodgau, Germany), and cells were subsequently counted with Countess 3 (Thermo Fisher Scientific, Waltham, MA, USA). […]

Series [1] has as its system MDA-MB-231 tumor xenograft. Type of series: in vivo, CD1 nu/nu mice. As for the experimental part:
(§1) The animal studies were conducted according to the principles and procedures outlined in the Guide for the Care and Use of Laboratory Animals and were in line with the Animal Welfare Act and the directive 2010/63/EU. All mice (CD1-Foxn1nu) were purchased from Charles River (Sulzfeld, Germany) and held in the animal facility of the University Hospital of Würzburg. After their arrival, they had at least a week to get used to their new environment in the animal facility.
(§2) Then, 5 × 10^6 MDA-MB-231-cells in PBS and 5 × 10^6 LNCap cells in Matrigel Matrix® without phenol-red (Corning Life Sciences B.V., Amsterdam, The Netherlands), respectively, were inoculated subcutaneously into the front flank of eight-week-old mice. After implantation, the animals were examined and monitored daily for tumor size and well-being.
(§3) After the tumor reached a size of ≥0.5 cm in diameter, micro-PET scans were started.
(§4) For tracer injection, and during the micro-PET scans, mice were kept under 1.5% isoflurane anesthesia in 100% oxygen. Body temperature was maintained at a physiological level by using heating pads throughout the whole examination period.
(§5) Then, 3.0 ± 0.9 MBq of freshly prepared [^68Ga]KISS1-54 was injected intravenously (i.v.) into the tail vein. The first animals were scanned over 80 min directly after tracer injection to find out the optimal time point for PET acquisition. […] Therefore, data acquisition for all further mice started 60 min p.i. over 20 min.
(§6) Each acquired set of data was sorted with Fourier rebinning (FORE) to a 2D dataset of sinograms, which were reconstructed with the OSEM2D reconstruction algorithm. The software AMIDE Medical Image Data Examiner (Version 1.0.4) was used to quantify the radioactivity uptake in various regions of interest (ROIs). For the semi-quantitative analysis of the PET images, spherical ROIs were defined and used. For quantification, tumor-to-muscle, tumor-to-liver, and tumor-to-lung ratios (maximal tumor uptake/mean organ uptake) were calculated.

The subject of the next series is LNCap tumor xenograft. Type of series: in vivo, CD1 nu/nu mice. As for the experimental part: as §1, §2, §3, §4, §5, §6
Another series has as its system HCT116 cells. Description: In vitro cell uptake, HCT116. The format is cell-based, human. As for the experimental part: (§7) Cells were seeded in 24-well plates, and 1 h before [^68Ga]KISS1-54 uptake, the cell culture medium was replaced by PBS/5% BSA. Cells were incubated at 37 °C with [^68Ga]KISS1-54 for 5–90 min or co-incubated for 60 min with [^68Ga]KISS1-54 and KISS1-54 (Sigma Aldrich, Deisenhofen, Germany). After incubation, cells were washed three times with ice-cold PBS/5% BSA and harvested. Radioactivity was measured with a gamma-counter (Wizard 2480, Perkin-Elmer, Rodgau, Germany), and cells were subsequently counted with Countess 3 (Thermo Fisher Scientific, Waltham, MA, USA). In the case of treatment with 5-Aza-2′-Deoxycytidine (Decitabine (DC)), cells were preincubated for 72 h in cell culture medium containing 5 µM Decitabine (Merck Millipore, Darmstadt, Germany). For data analysis, the determined accumulation of [^68Ga]KISS1-54 in vitro was standardized as “uptake/100,000 cells” for a better comparison. For example, the cell number differed between pretreatment with and without Decitabine, which is due to the treatment itself, making standardization necessary.

For the next series, the system named is HeLa cells. The experiment in a line: In vitro cell uptake, HeLa. Type of series: cell-based, human. The following applies: 60 min co-incubation with nonradioactive KISS1-54, 1,000-fold, p < 0.001. As for the experimental part: as §7
The format of series [2] is in vitro ADME, human. As for the experimental part: For the determination of the […] stability, [^68Ga]KISS1-54 was incubated in fresh human serum at 37 °C for 3 h. After 0.5 h, 1 h, 2 h, and 3 h, adequate samples were taken, purified, and analyzed via HPLC under the conditions described above. […] The measured radioactivity (counts per minute) for each fraction was plotted versus time in a graph.

In another series the test system is SK-BR-3 cells. Description: In vitro cell uptake, SK-BR-3. Type of series: cell-based, human. The note with it: 60 min co-incubation with nonradioactive KISS1-54, 1,000-fold, p = 0.02. As for the experimental part:
as §7

The subject of a further series is MDA-MB-231 cells. The experiment in a line: In vitro cell uptake, MDA-MB-231. The following applies: 60 min co-incubation with nonradioactive KISS1-54, 1,000-fold, not significant, p = 0.08. Type of series: cell-based, human. As for the experimental part: as §7
The next series in a line: in vivo. The note with it: mouse, iv; for tissue uptake at 1 h: CD1-Foxn1nu (CD1 nu/nu), total radioactivity. Details: species or system CD1 nu/nu mice. As for the experimental part: as §1, §2, §3, §4, §5, §6
Series [3] is described as follows: Stability in injection solution by radio-HPLC. The format is physicochemical. The following applies: 3 h after preparation (EOS), diluted in PBS, room temperature, C18. As for the experimental part:
The radiochemical purity of [^68Ga]KISS1-54 was determined via high-performance liquid chromatography (HPLC). A linear gradient started from 100% H2O (0.1% TFA) to 100% acetonitrile (0.1% TFA) over 10 min, with a flow rate of 0.7 mL/min, using a Nucleosil column (100-5 C18 125 × 4.6 mm) (CS-Chromatographie, Langerwehe, Germany) and HPLC system (Knauer, Berlin, Germany). For the determination of the in vitro stability, the [^68Ga]KISS1-54 solution was diluted in phosphate-buffered saline (PBS) and stored at room temperature, and the HPLC runs were repeated 1 h and 3 h after the end of synthesis.

The test system of a further series is LNCap cells. The experiment in a line: In vitro cell uptake, LNCap. The format is cell-based, human. The note with it: 60 min co-incubation with nonradioactive KISS1-54, 1,000-fold, p = 0.047. As for the experimental part:
as §7

The subject of another series is HepG2 cells. Description: In vitro cell uptake, HepG2. The format is cell-based, human. The note with it: 60 min co-incubation with nonradioactive KISS1-54, 1,000-fold, p = 0.02. As for the experimental part:
as §7

The test system of another series is MCF-7 cells. Description: In vitro cell uptake, MCF-7. Type of series: cell-based, human. The following applies: 60 min co-incubation with nonradioactive KISS1-54, 1,000-fold, p = 0.004. As for the experimental part: as §7
For series [4], the target named is KISS1 receptor (KISS1R or GPR54). The note with it: affinity for KISS1R; ref [1],[2]; cited from earlier work. As for the experimental part: Kisspeptins (KPs) summarize the family of KISS1 peptides, which bind at the KISS1 receptor (KISS1R or GPR54) with high affinity. Among the KPs, KISS1-54 is the best characterized representative (Ki 1.45 ± 0.1 nM for KISS1-54). The Kiss1 gene was first identified as a metastasis suppressor gene in melanoma, which suppresses metastasis without affecting the formation of primary tumor [3]. Since then, Kisspeptin was also identified in pancreatic, lung, breast, ovarian, gastric, colon, bladder, esophageal, and small intestine cancer.

With `Nc1ncn([C@H]2C[C@H](O)[C@@H](CO)O2)c(=O)n1` [Decitabine, 5-Aza-2′-Deoxycytidine], the “KISS1R level by immunofluorescence” value in the series on KISS1R in HCT116 cells is reported as “increase in the KISS1R level”.
For `O=C[C@H]([18F])[C@@H](O)[C@H](O)[C@H](O)CO` [[^18F]FDG, 2-[^18F]fluoro-2-deoxyglucose, reference compound], the “tumor uptake in control PET (tumor vitality)” value is reported as “clear FDG uptake” in series [1] (MDA-MB-231 tumor, scan the day before [^68Ga]KISS1-54) and “clear FDG uptake” with LNCap tumor xenograft (LNCap tumor, scan the day before [^68Ga]KISS1-54).
On to `CC[C@H](C)[C@H](NC(=O)[C@H](CCC(N)=O)NC(=O)[C@H](CCCNC(=N)N)NC(=O)[C@H](CO)NC(=O)[C@H](Cc1c[nH]cn1)NC(=O)[C@@H]1CCCN1C(=O)[C@H](C)NC(=O)[C@H](CO)NC(=O)[C@H](CC(C)C)NC(=O)CNC(=O)[C@@H]1CCCN1C(=O)[C@H](CCC(N)=O)NC(=O)[C@H](CCC(N)=O)NC(=O)[C@H](CCCNC(=N)N)NC(=O)[C@H](CO)NC(=O)CNC(=O)[C@H](CO)NC(=O)[C@H](CO)NC(=O)[C@H](CCC(=O)O)NC(=O)[C@@H]1CCCN1C(=O)[C@@H]1CCCN1C(=O)[C@@H]1CCCN1C(=O)[C@H](CO)NC(=O)[C@H](CC(C)C)NC(=O)[C@H](CO)NC(=O)[C@@H](NC(=O)CNC(=O)CCC(C(=O)O)N1CCN(CC(=O)O)CCN(CC(=O)O)CC1)[C@@H](C)O)C(=O)N1CCC[C@H]1C(=O)N[C@@H](C)C(=O)N1CCC[C@H]1C(=O)N[C@@H](CCC(N)=O)C(=O)NCC(=O)N[C@@H](C)C(=O)N[C@H](C(=O)N[C@@H](CC(C)C)C(=O)N[C@H](C(=O)N[C@@H](CCC(N)=O)C(=O)N[C@@H](CCCNC(=N)N)C(=O)N[C@@H](CCC(=O)O)C(=O)N[C@@H](CCCCN)C(=O)N[C@@H](CC(=O)O)C(=O)N[C@@H](CC(C)C)C(=O)N1CCC[C@H]1C(=O)N[C@@H](CC(N)=O)C(=O)N[C@@H](Cc1ccc(O)cc1)C(=O)N[C@@H](CC(N)=O)C(=O)N[C@@H](Cc1c[nH]c2ccccc12)C(=O)N[C@@H](CC(N)=O)C(=O)N[C@@H](CO)C(=O)N[C@@H](Cc1ccccc1)C(=O)NCC(=O)N[C@@H](CC(C)C)C(=O)N[C@@H](CCCNC(=N)N)C(=O)N[C@@H](Cc1ccccc1)C(N)=O)C(C)C)C(C)C` (some centres unmarked) [[^68Ga]KISS1-54, metal not drawn], for which the “increased uptake after Decitabine treatment, with KISS1-54 co-incubation” value with HCT116 cells (DC-treated HCT116, 60 min co-incubation with KISS1-54) is given as “could be blocked”. Besides, in the series with HCT116 cells (HCT116, 72 h pre-incubation with 5 µM Decitabine), the “uptake in Decitabine-pre-incubated HCT116 versus untreated cells” value is reported as “significantly increased”. Also, the “uptake with KISS1-54 co-incubation, relative to control without blocking” value stood at 76% with HCT116 cells (HCT116, 60 min co-incubation with nonradioactive KISS1-54, 1,000-fold, not significant, p = 0.07); 40% with HeLa cells; 46% in the series on SK-BR-3 cells; 65% with MDA-MB-231 cells; 50% in the series with LNCap cells; 46% in the series with HepG2 cells. Besides, in the series with MCF-7 cells, the “uptake with KISS1-54 co-incubation, relative to control without blocking” value is 47%. Also, in [2], the “radiochemical purity after incubation in human serum, 1 h” value worked out at 98.0%. In addition, the tumor-to-muscle ratio stood at 1.4 ± 0.4 in series [1] (MDA-MB-231, maximal tumor uptake/mean organ uptake, 60 min p.i.) and 2.0 ± 0.3 with LNCap tumor xenograft (LNCap, maximal tumor uptake/mean organ uptake, 60 min p.i.). Besides, the tumor uptake in [1] (MDA-MB-231 tumor, 60 min p.i., i.v., µ-PET, mean ± SD, n = 10) is reported as 0.7 ± 0.3 % ID/g; in the series with LNCap tumor xenograft (LNCap tumor, 60 min p.i., i.v., µ-PET, mean ± SD, n = 8) it was 0.9 ± 0.3 % ID/g. The “tumor visualisation in PET” value in series [1] (MDA-MB-231 tumor, n = 10, visual inspection) is reported as “no significant uptake”; in the series with LNCap tumor xenograft (LNCap xenograft, n = 8, visual inspection) it was “clearly delineated from the surrounding tissue”. The “reduction of tumor uptake by co-injection of KISS1-54” value in the series on LNCap tumor xenograft (LNCap-bearing mice, nonradioactive KISS1-54 in 100-fold excess) is given as 26 ± 5%. Moreover, the tissue uptake at 1 h in “in vivo” (tracer accumulation in brain) was ~0.2 %ID/g; in the series “in vivo” (tracer accumulation in liver), ~0.8 %ID/g; in the series “in vivo” (tracer accumulation in muscle), ~0.5 %ID/g. In addition, the clearance entry in the series “in vivo” was “rapid renal tracer clearance during the first few minutes”. In addition, the “radiochemical purity in injection solution” value in series [3] was > 99%.
Turning to “KISS1-54: KISS1 peptide with 54 amino acids; nonradioactive blocking agent (GTSLSPPPESSGSPQQPGLSAPHSRQIPAPQGAVLVQREKDLPNYNWNSFGLRF; ends and bridges not checked; UniProt Q15726 68-121, looked up)”, the Ki in [4] was 1.45 ± 0.1 nM.
